Test results taken from US10034828B2, “Hair treatment systems and methods using peptides and other compositions” (priority 2013, dated 2018).
Blank lines part the entries; values can stand above or below the compound they belong to.

Assays:
[1] = Nitric oxide absorption by carriers (weight gain on bubbling NO gas); format: physicochemical; conditions: NO gas bubbled 40 hr, 25 ° C.
Procedure: This example illustrates one technique for preparing a composition in accordance with one embodiment of the invention. An accurate amount of a carrier (HNC 167-62) (see below) was introduced into a system. The carrier weight used in these experiments was approximately 250 g and the vessel size was 500 ml. The vessel was equipped with a mechanical stirrer, gas inlet, and gas outlet and was previously purged with argon for about an hour. The temperature of the carrier was kept at about 25-30° C. NO gas regulated at 5 psi (1 psi is about 6,900 Pa) and was then introduced at a controlled rate of about 1 bubble/s with continuous stirring. […] After 6 hours, the weight of the carrier had increased by 0.15%, by 12 hours by 0.25%, and by 24 hours by 0.56%. These increases in weight were believed to be significant considering the relative small molecular weight of NO versus the carrier. […] The carrier also can solidify upon cooling if the carrier is initially a solid at lower temperature.
Each carrier was taken in a 500 mL three necked flask equipped with a mechanical stirrer, gas inlet and a gas outlet. The system was purged with argon for one hour at room temperature (25° C.). Then nitric oxide gas was bubbled into the system. Then, nitric oxide gas was bubbled through carrier for stipulated amount of time. The changes in weight and color were noted. […]

[2] = Carrying of TRH peptide by carrier formulations; format: physicochemical; conditions: TRH concentration of 5.0 mg/cc
Description: Any of the above compositions are effective as carriers for peptides and nitric oxide.

[3] = system: micro-capillary blood flow to skin; assay: Laser Doppler capillary blood flow in humans, 10,000 ppm NO in closed Hilltop chamber (Example 5); format: in vivo, human; conditions: applied to the skin at 1/10% in alcohol
Description: The formulation used in these studies contained nitric oxide dispersed in a lipid matrix. […] Nitric oxide is a very rapid acting molecule, and these studies used a system that employed laser Doppler with a covered chamber. The formulation was placed into the chamber and then attached to the skin by an adhesive layer on the covering. This provided a stable measuring device as determined by multiple normal evaluations of the capillary blood flow without treatment of nitric oxide.
A known positive control, methyl nicotinate, was applied to the skin at a concentration of 1/10% in alcohol. […] The vascular dynamics are such that when the blood vessels dilate physical parameters follow Bernoulli's law. […] The laser Doppler device accurately measured these parameters.
In these studies, the participants were healthy females aged 30 to 55 years. They were in good health as determined by the medical history and were not taking any prescription medications. All study participants read and signed the informed consent statement prior to any study procedures being performed. […]
A Moor Instruments DRT4 Laser Doppler Blood Flow Monitor (Devon, England) was used in these studies. The laser Doppler technique measured blood flow in the microcapillaries of the skin that are close to the skin surface and the blood flow in underlying arterioles and venules that help to regulate skin temperature. […]

[4] = system: capillary circulation of the skin; assay: Laser Doppler circulation study in five human subjects (Example 8); format: in vivo; conditions: positive control formulation containing 0.1% methyl nicotinate
Description: This example illustrates delivery of nitric oxide formulations to five human subjects, using procedures and formulations similar to those discussed in Example 5. Each person served as their own control for the testing. A Moor Instruments Laser Doppler was used to determine circulation. […] The formulations used produce positive, almost immediate results when applied to the skin which, in these studies, was manifested by vasodilatation of the cutaneous vascular system.
For each subject, the following creams were applied: a negative control formulation (containing no NO), 0.010 gram of a 10,000 ppm NO formulation, 0.020 gram of a 10,000 ppm NO formulation, and a positive control formulation containing 0.1% methyl nicotinate. The formulations were prepared using procedures similar to those discussed in Example 1.

SMILES: OCCCO [1,3-Propanediol, 1,3-propanediol]
- % Wt. gain [1]: 0.09%
- Wt. Gain g [1]: 0.16 g

- carrying of the peptide by formulations HNC 156-43, HNC 156-50, HNC 156-47, HNC 159-136 [2]: effectively carried
SMILES: NC(=O)[C@@H]1CCCN1C(=O)[C@H](Cc1cnc[nH]1)NC(=O)[C@@H]1CCC(=O)N1 [TRH, thyrotropin-releasing hormone]

SMILES: COC(=O)c1cccnc1 [methyl nicotinate]
- laser Doppler response to positive control [3]: rapid response typical of the vasodilator
- vasodilatation [4]: vasodilatation was observed
